Peptide text beside a SMILES is read from it. * marks the point of attachment. X3 = C[C@@H]1NC(=O)[C@H](CCC(N)=O)NC(=O)[C@H](CC(=O)O)NC(=O)[C@@H](N)CSCc2cc3cc(c2)CSC[C@@H](C(=O)*)NC(=O)[C@H](CSC3)NC1=O; X1 = C[C@@H]1NC(=O)[C@H](CC(=O)O)NC(=O)[C@@H](N)CSCc2cc3cc(c2)CSC[C@@H](C(=O)*)NC(=O)[C@H](CSC3)NC(=O)[C@H](CO)NC1=O
How the values were obtained:
[1] = In vitro peptide stability in human serum; format: in vitro ADME; conditions: 25% male human serum diluted in RPMI medium, 150 μM peptide, 37 °C, serum pre-equilibrated 15 min, methanol precipitation, RP-HPLC 210 nm peak area relative to 0 h, LC-MS for products
Method: In vitro peptide stability in human serum[50]
Male human serum (H-4522) was obtained from Sigma Aldrich (Missouri, USA). […] The initial time is recorded as peptides were added. The mixture was incubated at 37 °C and an aliquot of 40 μL was removed at different time intervals. […] The supernatant was analyzed in analytical RP-HPLC to calculate the amount of tested peptides, and in LCMS to analyze degradation products. The eluted peptides were detected by absorbance at 210 nm and quantified by their peak areas relative to the initial peak areas (0 h).

[2] = CD spectroscopy: percent helicity and ellipticity ratio 222/208 nm; format: physicochemical; conditions: for % helicity: 5-30 μM peptide, three scans averaged, [θ]222/[θ]max
Method: Circular dichroism (CD) experiments
Concentrations of the stock solution were determined by […] absorption of Trp or 275 nm absorption of Tyr (and TMB, if present in peptides). Each sample was dissolved in 1x PBS (pH 7.4), 10% TFE/PBS or 20% TFE/PBS with the final concentration between 5 to 30 μM. CD spectra were acquired using circular dichroism spectrometer (Chirascan) equipped with a temperature controller using 1 mm cell at a scan speed of 0.5 nm/sec at indicated temperature. Each sample was scanned three times and the averaged spectrum was smoothed.
Calculation of percent helicity
For simplicity, ‘helicity’ or ‘helical’ in the following text all refers to α-type. For each peptide, mean residue ellipticities ([θ]/(c*n), c = concentration of the peptide, n = number of amino acids in the peptide) were used to calculate % helicity, which is an empirical indicator of peptide helicity. […] (n = number of amino acids in the peptide, T = 25.0 °C).

circular dichroism = conditions: PBS; pH 7.4; 25 °C; 5-30 uM
cyclin E [3] = target: T1, cyclin E (Homo sapiens, UniProt P24864); experiment: Direct FP assay to measure Kd of fluorescent peptides; format: binding; conditions: FITC-labelled peptide 20 nM final, cyclin E up to 2.4 μM final, PBS, 3 h, n=1 independent experiment in duplicate wells; not saturated, estimate value; read-out: Kd, fluorescence polarization
T1 construct: purchased Sino Biological
Method: Direct FP assay to measure Kd of fluorescent peptides
Polarized fluorescence intensities were measured on Synergy H4 plate reader with excitation and emission wavelengths of 485 and 535 nm with 20 nm band widths, respectively. The optics position is Top 510 nm with Gain set as 100. Read Speed is normal and read height is 7 mm. Cyclin proteins were bought from Sino Biological and after reconstitution it should be used immediately. […] To each well, 10 μL 40 nM of fluorescent peptides in PBS was added. Various concentrations of cyclin E (from Sino Biological, Inc.) were prepared (0.16–4.8 μM) and 10 μL were added to each well. The plate was shaken in the dark for 3 h. Wells containing only the peptide and PBS buffer were used as a control. Each mixture was prepared in duplicates.

cyclin E [4] = target: T1, cyclin E; experiment: Trp fluorescence quenching assay; format: binding; conditions: 0.8 μM cyclin E in PBS pH 7.4, 25 °C, ex 295 nm, em 338 nm; n = 2 independent experiments, ± S.D.
Method: Trp fluorescence quenching assay
Fluorescence quenching of the single tryptophan in cyclin E was measured by using a Cary Eclipse (Varian) equipped with a front-face fluorescence accessory at 25 °C, by using 10-nm excitation and 10 nm emission bandwidths. The excitation wavelength was 295 nm and the emission spectra were measured between 315 and 395 nm. Titrations were performed in a 0.7-ml quartz fluorescence cuvette containing 0.5 mL 0.8 μM protein in PBS buffer, pH 7.4, and by the successive addition of 0.5–1 μL of compound stock solutions. After each addition, the cuvette was shaken to enable fast mixture, and there were 10 mins interval between two additions to ensure equilibrium of the mixture. The measurements were repeated at least three times at each concentration. Fluorescence intensities at 338 nm at increasing concentrations of the quencher were collected. Dissociation equilibrium constant (Kd) values were determined by fitting data to the equation below[42],[43].

[5] = CD in PBS buffer (pH 7.4, 10 mM), 25.0 °C, 1 mm cell

T1 sequence (P24864 whole entry): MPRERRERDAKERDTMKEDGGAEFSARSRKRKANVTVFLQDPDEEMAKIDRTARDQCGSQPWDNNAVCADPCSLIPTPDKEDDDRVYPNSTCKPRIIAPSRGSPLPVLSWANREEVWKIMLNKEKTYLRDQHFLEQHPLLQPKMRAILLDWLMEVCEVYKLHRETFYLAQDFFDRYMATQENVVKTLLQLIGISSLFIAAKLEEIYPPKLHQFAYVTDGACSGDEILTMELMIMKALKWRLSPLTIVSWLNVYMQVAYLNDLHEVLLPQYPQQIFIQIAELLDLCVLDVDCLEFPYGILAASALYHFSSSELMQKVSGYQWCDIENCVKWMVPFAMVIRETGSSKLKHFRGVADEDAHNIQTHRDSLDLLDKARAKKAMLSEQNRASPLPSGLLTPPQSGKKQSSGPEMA

Row | Kd (cyclin E [3]) [µM] | Kd (cyclin E [4]) [µM] | Compound | half-life at 150 μM [1] [h] | ellipticity ratio 222/208 nm ([2]; CD in 10% TFE/PBS, 25 °C) | % helicity ([2]; CD in 10% TFE/PBS, 25 °C) [%] | % helicity [2, 5] [%] | ellipticity ratio 222/208 nm ([2]; CD in PBS, 25 °C) | helicity (circular dichroism) [%] | half-life [1] [h]
1 | – | – | CC[C@H](C)[C@H](NC(=O)[C@H](CCC(=O)O)NC(=O)[C@H](C)NC(=O)[C@H](CC(C)C)NC(=O)[C@H](CCC(N)=O)NC(=O)[C@@H]1CSCc2cc3cc(c2)CSC[C@H](N)C(=O)N[C@@H](CC(=O)O)C(=O)N[C@@H](CCC(N)=O)C(=O)N[C@@H](C(C)C)C(=O)N[C@@H](CSC3)C(=O)N1)C(=O)N[C@@H](Cc1ccc(O)cc1)C(N)=O [1B] | 5.1 | 0.86 | 43 | 17 | 0.48 | 17 | –
2 | – | – | CC(C)C[C@H](NC(=O)[C@H](C)NC(=O)[C@H](CCCNC(=N)N)NC(=O)[C@H](CC(C)C)NC(=O)[C@H](CC(C)C)NC(=O)[C@@H]1CSCc2cc3cc(c2)CSC[C@H](N)C(=O)N[C@@H](CC(=O)O)C(=O)N[C@@H](CCC(N)=O)C(=O)N[C@@H](C)C(=O)N[C@@H](CSC3)C(=O)N1)C(=O)N[C@@H](CC(=O)O)C(=O)N[C@@H](CCC(N)=O)C(=O)N[C@@H](Cc1ccc(O)cc1)C(N)=O [2B] (X3-LLRALDQY-NH2; N-terminus and C-terminus assumed) | 2.9 | 1 | 42 | 25 | 0.91 | 25 | –
3 | – | – | CC[C@H](C)[C@H](NC(=O)[C@@H]1CSCc2cc3cc(c2)CSC[C@H](N)C(=O)N[C@@H](CC(=O)O)C(=O)N[C@@H](C)C(=O)N[C@@H](CO)C(=O)N[C@@H](CSC3)C(=O)N1)C(=O)N[C@@H](CCCNC(=N)N)C(=O)N[C@@H](CCC(=O)O)C(=O)N[C@H](C(=O)N[C@@H](CO)C(=O)N[C@@H](CC(C)C)C(=O)N[C@@H](CC(C)C)C(=O)N[C@@H](CCCCN)C(=O)N[C@@H](CCC(=O)O)C(=O)N[C@@H](Cc1ccc(O)cc1)C(N)=O)[C@@H](C)CC [3B] (X1-IREISLLKEY-NH2; N-terminus and C-terminus assumed) | 3.5 | 0.84 | 34 | 17 | 0.5 | 17 | –
4 | 4.6 ± 2.4 | – | CC[C@H](C)[C@H](NC(=O)[C@@H]1CSCc2cc3cc(c2)CSC[C@H](NC(=O)[C@H](CO)NC(=O)[C@H](C)NC(=O)[C@H](CC(=O)O)NC(=O)[C@@H](NC(=O)CCNC(=O)CCNC(=O)CCNC(=S)Nc2ccc4c(c2)C(=O)OC42c4ccc(O)cc4Oc4cc(O)ccc42)CSC3)C(=O)N1)C(=O)N[C@@H](CCCNC(=N)N)C(=O)N[C@@H](CCC(=O)O)C(=O)N[C@H](C(=O)N[C@@H](CO)C(=O)N[C@@H](CC(C)C)C(=O)N[C@@H](CC(C)C)C(=O)N[C@@H](CCCCN)C(=O)N[C@@H](CCC(=O)O)C(=O)N[C@@H](Cc1ccc(O)cc1)C(N)=O)[C@@H](C)CC [3Bf] | – | – | – | – | – | – | –
5 | – | – | CC[C@H](C)[C@H](NC(=O)[C@H](CC(N)=O)NC(=O)[C@H](CCCCN)NC(=O)[C@H](CSC)NC(=O)[C@H](CSC)NC(=O)[C@H](C)NC(=O)[C@H](C)NC(=O)[C@H](CC(=O)O)NC(=O)[C@@H](N)CSC)C(=O)N[C@@H](C)C(=O)N[C@@H](CO)C(=O)N[C@@H](CC(C)C)C(=O)N[C@@H](CC(C)C)C(=O)N[C@@H](CCCNC(=N)N)C(=O)N[C@H](C(=O)N[C@@H](CCC(N)=O)C(=O)N[C@@H](C)C(=O)N[C@@H](Cc1c[nH]cn1)C(=O)N[C@H](C(=O)N[C@@H](CCCNC(=N)N)C(=O)N[C@@H](CCCCN)C(=O)N[C@@H](CCCCN)C(=O)N[C@@H](CCSC)C(=O)N[C@H](C(=O)N[C@@H](Cc1ccc(O)cc1)C(N)=O)C(C)C)[C@@H](C)CC)C(C)C [4m] (H-C(Me)DAAC(Me)C(Me)KNIASLLRVQAHIRKKMVY-NH2; N-terminus and C-terminus assumed) | – | 0.73 | 35 | 11 | 0.29 | – | < 1
6 | – | 8.6 ± 2.8 | Ac-ASTAIREISLLKEY-NH2 [3l] | – | 0.34 | 20 | 11 | 0.18 | 11 | –
7 | – | – | Ac-KNIASLLRVQAHIRKKMVY-NH2 [4l] | – | 0.69 | 35 | 14 | 0.27 | 14 | < 1
